Earlier results as cited in patent publication US20060051406A1, “Formulation of insoluble small molecule therapeutics in lipid-based carriers” (priority 2004, published 2006).

Details: lipid transition temperature (gel to liquid crystalline phase)

Row | Compound | Tm [°C]
1 | CCCCCCCCCCCCCC(=O)OC[C@H](COP(=O)([O-])OCC[N+](C)(C)C)OC(=O)CCCCCCCCCCCCC [Dimyristoylphosphatidylcholine] | 23
2 | CCCCCCCC/C=C\CCCCCCCC(=O)OC[C@H](COP(=O)([O-])OCC[N+](C)(C)C)OC(=O)CCCCCCC/C=C\CCCCCCCC [Dioleoylphosphatidylcholine, 1,2-dioleoyl-sn-glycero-3-phosphocholine] | −22
3 | CCCCCCCCCCCCCCCC(=O)OC[C@H](COP(=O)([O-])OCC[N+](C)(C)C)OC(=O)CCCCCCCCCCCCCCC [Dipalmitoylphosphatidylcholine] | 41
4 | CCCCCCCCCCCCCCCCCC(=O)OC[C@H](COP(=O)([O-])OCC[N+](C)(C)C)OC(=O)CCCCCCCCCCCCCCCCC [Distearoylphosphatidylcholine] | 55
